Source: PMC11220870, “From X-ray crystallographic structure to intrinsic thermodynamics of protein–ligand binding using carbonic anhydrase isozymes as a model system” (IUCrJ, 2024)

Key:
[1] = target: T1, CA IX (Homo sapiens, UniProt Q16790); experiment: Intrinsic Gibbs energy of binding (TSA); details: 37°C, Fig. 5
T1 construct: made in house

[2] = tested on: CA IX; set-up: method as in earlier work; details: depending on the isozyme, ref Dudutienė et al., 2014, Matulienė et al., 2022, Zakšauskas et al.; cited from earlier work
[3] = target: CA I (Homo sapiens, UniProt P00915); details: intrinsic, 37°C
Protocol: Intrinsic thermodynamic parameters of all pairs were determined by TSA and ITC (for calculations we used Gibbs energy obtained by TSA and enthalpy from ITC measurements).

CA I, sequence (P00915 whole entry): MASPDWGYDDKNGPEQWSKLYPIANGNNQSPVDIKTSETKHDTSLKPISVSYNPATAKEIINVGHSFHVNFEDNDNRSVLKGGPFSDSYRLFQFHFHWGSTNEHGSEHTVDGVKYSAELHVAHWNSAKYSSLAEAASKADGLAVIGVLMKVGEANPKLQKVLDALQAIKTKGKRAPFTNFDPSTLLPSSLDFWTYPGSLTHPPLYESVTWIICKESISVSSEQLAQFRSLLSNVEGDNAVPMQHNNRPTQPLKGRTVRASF

| Structure (SMILES) | intrinsic standard Gibbs energy of binding [1] | selectivity toward CA IX over remaining isozymes [2] | ΔHint [3] |
| --- | --- | --- | --- |
| COC(=O)c1cc(S(N)(=O)=O)c(SC2CCCCC2)cc1Cl [EA2-3] | -17.9 kcal/mol | a hundred- to a million-fold |  |
| CCCSc1c(F)c(F)c(S(N)(=O)=O)c(F)c1F [VD12-05] |  |  | -17.9 kcal/mol |
